In ChEMBL document CHEMBL1201862, “PubChem BioAssay data set” (2004):
The source made the active and inactive calls.

Assays:
[1] = antiviral protection against BTV-induced cell death – arbovirus, BSR cells, confirmation (AID 1250); type: functional;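 further: protection from viral cytopathic effect measured as cell viability by ATP luminescence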
[2] = decrease of insulin promoter-GFP reporter – imaging, high-content screening, mouse beta cells (AID 1628); type: functional; details: MIN6
[3] = MIN6 cell viability loss – mouse insulinoma, cytotoxicity control, dose response (AID 2122); type: functional;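 further: confirmatory high-throughput counterscreen run to flag cytotoxic compounds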
[4] = Trypanosoma cruzi growth suppression in host cells – NIH3T3 host cells, beta-gal luminescence, confirmation (AID 2044); type: functional, cell-based;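 further: intracellular parasites grown in NIH/3T3 mouse fibroblasts as host cells; luminescent beta-galactosidase reporter signal from transgenic T. cruzi replicating inside host cells; inhibitors lower the luminescence signal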
[5] = NIH3T3 cell viability loss – ATP luminescence, mouse fibroblasts, counter-screen, dose response (AID 2010); type: functional, cell-based;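 further: cells exposed to compound for about 90 hours before reading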
[6] = biological target: T1, Sphingosine 1-phosphate receptor 4 (Homo sapiens, UniProt O95977); assay: Fluorescence dose response cell-based high throughput screening assay for antagonists of the Sphingosine 1-Phosphate Receptor 4 (S1P4). [Related pubchem assays: 1524 (Confirmation in triplicates.), 1510 (Primary screen.)]; type: functional
T1 sequence (O95977 whole entry): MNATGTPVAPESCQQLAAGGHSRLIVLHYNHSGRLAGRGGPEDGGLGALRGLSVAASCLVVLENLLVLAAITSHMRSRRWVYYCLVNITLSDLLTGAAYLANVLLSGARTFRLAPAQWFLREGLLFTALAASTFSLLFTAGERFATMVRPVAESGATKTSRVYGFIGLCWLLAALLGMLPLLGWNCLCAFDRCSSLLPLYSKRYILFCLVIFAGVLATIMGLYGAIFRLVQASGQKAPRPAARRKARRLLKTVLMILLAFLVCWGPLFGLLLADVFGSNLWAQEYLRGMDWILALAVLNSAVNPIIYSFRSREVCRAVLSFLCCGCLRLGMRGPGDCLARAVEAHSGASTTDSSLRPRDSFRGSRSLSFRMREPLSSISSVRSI

[7] = biological target: Sphingosine 1-phosphate receptor 1 (Homo sapiens, UniProt P21453); type: functional;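 further: Tango beta-arrestin reporter U2OS cells stimulated with S1P near its EC80; inhibitor potency meaning antagonism of receptor activation by the natural agonist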
[8] = biological target: T2, Microphthalmia-associated transcription factor (Homo sapiens, UniProt O75030); assay: reducers of TRPM1 reporter luminescence, concentration series – cell-based, SK-MEL-5, cherry-picked, set 3, MITF inhibitor project, dose response (AID 493073); type: functional;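 further: SK-MEL-5 melanoma cells with luciferase driven by the MITF target TRPM1 promoter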
T2 sequence (O75030 whole entry): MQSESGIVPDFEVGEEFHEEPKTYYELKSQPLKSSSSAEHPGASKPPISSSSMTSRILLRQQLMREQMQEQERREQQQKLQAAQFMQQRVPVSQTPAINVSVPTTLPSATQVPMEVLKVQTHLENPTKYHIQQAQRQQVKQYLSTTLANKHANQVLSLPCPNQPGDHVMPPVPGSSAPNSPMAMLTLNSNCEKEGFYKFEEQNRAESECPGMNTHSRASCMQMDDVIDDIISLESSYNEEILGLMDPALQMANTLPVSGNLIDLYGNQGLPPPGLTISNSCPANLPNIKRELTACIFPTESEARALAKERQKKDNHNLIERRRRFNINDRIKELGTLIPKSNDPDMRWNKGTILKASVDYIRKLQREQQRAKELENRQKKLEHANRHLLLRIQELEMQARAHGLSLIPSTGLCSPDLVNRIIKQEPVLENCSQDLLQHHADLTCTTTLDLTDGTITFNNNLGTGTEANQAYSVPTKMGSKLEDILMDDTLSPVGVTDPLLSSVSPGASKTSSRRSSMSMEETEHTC

Vero [9] = assay: cells; type: functional, cell-based; details: Chlorocebus sabaeus
Vero [10] = assay: cells; type: functional; details: Chlorocebus sabaeus
[11] = A549 cell cytotoxicity, dose response, cytotoxicity control, plate reader, cherry-pick, antagonist series (AID 743412); type: functional, cell-based
[12] = toxicity toward HepG2 liver cells – cell-based, plate reader, cherry-pick, antagonist series, cytotoxicity control, dose response (AID 743416); type: functional
[13] = blockers of bursicon-stimulated LGR2 cAMP reporter – cell-based, HEK293, CRE-luciferase reporter, cherry pick, set 2, dose response (AID 743343); type: functional;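 further: transfected cells were stimulated with diluted bursicon conditioned medium after compound addition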
[14] = blockade of melanocortin 4 receptor signaling – cell-based, plate reader, cherry pick, counter-screen for LGR2 antagonist project, dose response (AID 743444); type: functional;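 further: transfected HEK 293 cells stimulated with alpha-MSH peptide; potency of inhibitors of the alpha-MSH evoked signal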
[15] = viability loss in HEK293 cells – cell-based, plate reader, cherry-picked samples, cytotoxicity control, dose response (AID 743446); type: functional
[16] = Luminescence Cell-Based Dose-Confimation HTS to Identify Inhibitors of 5'UTR Stem-Loop Driven Alpha-Synuclein mRNA Translation in H4 Neuroglioblastoma Cells. [Related pubchem assays: 1827 (Project Summary), 1813 (Primary HTS)]; type: functional
Oxytocin receptor = Oxytocin receptor (Homo sapiens, UniProt P30559); assay: Counterscreen for vasopressin 1 receptor (V1R) agonists: Fluorescence-based cell-based high throughput dose response assay for agonists of the Oxytocin Receptor (OXTR). [Related pubchem assays: 2435 (Primary screen (OXTR agonists in singlicate)), 434964 (Confirmation screen (V1R agonists in triplicate)), 434969 (Counterscreen (OXTR agonists in …; type: functional
Vasopressin V1a receptor = Vasopressin V1a receptor (Homo sapiens, UniProt P37288); assay: Fluorescence-based cell-based high throughput dose response screening assay for agonists of the vasopressin 1 receptor (V1R).; type: functional
Cytochrome P450 2D6 = Cytochrome P450 2D6 (Homo sapiens, UniProt P10635); assay: qHTS Assay for Inhibitors and Substrates of Cytochrome P450 2D6. [Related pubchem assays: 410 ]; type: ADME; details: read-out: Potency
Cytochrome P450 3A4 = Cytochrome P450 3A4 (Homo sapiens, UniProt P08684); details: Potency;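 further: confirmatory qHTS run detecting inhibitors and substrates of CYP3A4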
[17] = biological target: Sphingosine 1-phosphate receptor 2 (Homo sapiens, UniProt O95136); assay: Dose Response Cell Based Assay for Agonists of the S1P2 Receptor of Purchased Analogues. [Related pubchem assays: 729, 843, 854, 736 ]; type: functional
NS3 = NS3 (Hepatitis C virus, UniProt A3EZJ3); assay: PubChem AID 2173; design: species or system Hepacivirus hominis
[18] = luciferase reporter signal suppression in cells – H4 neuroglioma cells, luminescence, dose response (AID 1990); type: functional, cell-based
[19] = luciferase reporter signal reduction – luminescence, H4-C neuroglioblastoma cells, dose response (AID 2458); type: functional, cell-based;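 further: H4 neuroglioblastoma cells stably carrying a luciferase reporter gene fusion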
cells = type: functional, cell-based
[20] = Luminescence Cell-Based Dose Response HTS to Identify Inhibitors of 5'UTR Stem-Loop Driven Prion Protein mRNA Translation in H4 Neuroglioblastoma Cells. [Related pubchem assays: 1827 (Project Summary), 1813 (Primary HTS)]; type: functional
[21] = alpha-synuclein stem-loop luciferase translation blockers – H4 neuroglioma cells, luminescence, confirmation (AID 1988); type: functional, cell-based
[22] = alpha-synuclein stem-loop translation blockers – luminescence, H4 neuroglioblastoma cells, dose confirmation, confirmation (AID 2454); type: functional, cell-based;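 further: H4 neuroglioblastoma cells carrying an alpha-synuclein 5'UTR luciferase reporter; potency for inhibition of the luciferase signal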
[23] = HEK-293T cell viability reduction – luminescence, B-cell screen hits, cytotoxicity control for BCR NF-kB inhibitor project, dose response (AID 489021); type: functional, cell-based;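 further: HEK-293T cells carrying an NF-kB luciferase reporter; cells exposed to compound for about 14 hours before viability readout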
NADPH oxidase 1 = NADPH oxidase 1 (Homo sapiens, UniProt Q9Y5S8); type: functional, cell-based;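 further: Cell-based assay with luminescence read-out, IC50 derived from inhibitor dose-response curves; intracellular ROS from endogenous NOX1 in intact HT29 colon cancer cells; potency of inhibitors that lower the ROS luminescence signal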
Sequence of NADPH oxidase 1 (Q9Y5S8 whole entry): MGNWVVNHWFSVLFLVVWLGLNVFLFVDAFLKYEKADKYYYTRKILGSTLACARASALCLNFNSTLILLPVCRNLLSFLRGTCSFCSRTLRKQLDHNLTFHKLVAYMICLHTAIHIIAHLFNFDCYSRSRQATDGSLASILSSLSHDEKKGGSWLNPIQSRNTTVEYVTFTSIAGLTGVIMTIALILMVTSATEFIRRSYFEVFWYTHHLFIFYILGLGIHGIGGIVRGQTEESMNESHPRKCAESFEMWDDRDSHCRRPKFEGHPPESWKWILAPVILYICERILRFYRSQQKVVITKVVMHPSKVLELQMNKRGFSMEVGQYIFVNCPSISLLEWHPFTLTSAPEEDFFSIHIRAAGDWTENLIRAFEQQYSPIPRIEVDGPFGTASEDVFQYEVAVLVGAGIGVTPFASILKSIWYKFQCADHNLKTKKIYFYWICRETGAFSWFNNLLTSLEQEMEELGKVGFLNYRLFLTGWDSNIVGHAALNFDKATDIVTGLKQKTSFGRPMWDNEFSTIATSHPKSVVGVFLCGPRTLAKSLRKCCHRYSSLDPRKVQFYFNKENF

Sequence of Vasopressin V1a receptor (P37288 whole entry): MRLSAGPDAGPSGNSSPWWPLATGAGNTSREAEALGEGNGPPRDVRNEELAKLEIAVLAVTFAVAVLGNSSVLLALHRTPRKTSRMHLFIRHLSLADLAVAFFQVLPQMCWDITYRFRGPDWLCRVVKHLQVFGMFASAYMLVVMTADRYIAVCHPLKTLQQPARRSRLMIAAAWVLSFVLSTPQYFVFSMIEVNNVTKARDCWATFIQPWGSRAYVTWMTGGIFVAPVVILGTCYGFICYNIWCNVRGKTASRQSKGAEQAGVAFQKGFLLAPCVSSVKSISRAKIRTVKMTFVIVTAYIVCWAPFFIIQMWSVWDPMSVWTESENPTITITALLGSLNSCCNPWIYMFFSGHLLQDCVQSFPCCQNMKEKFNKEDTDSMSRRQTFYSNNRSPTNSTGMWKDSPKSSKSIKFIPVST
Sequence of Oxytocin receptor (P30559 whole entry): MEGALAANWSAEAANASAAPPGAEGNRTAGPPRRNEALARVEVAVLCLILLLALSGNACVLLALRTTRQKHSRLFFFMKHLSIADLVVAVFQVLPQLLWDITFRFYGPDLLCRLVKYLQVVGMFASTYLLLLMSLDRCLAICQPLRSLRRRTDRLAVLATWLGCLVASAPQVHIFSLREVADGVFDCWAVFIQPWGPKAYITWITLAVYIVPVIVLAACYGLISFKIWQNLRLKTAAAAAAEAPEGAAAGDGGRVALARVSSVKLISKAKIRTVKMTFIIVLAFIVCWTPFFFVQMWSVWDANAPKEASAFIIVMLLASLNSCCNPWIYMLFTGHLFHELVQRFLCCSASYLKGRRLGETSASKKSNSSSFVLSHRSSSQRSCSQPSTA
Sequence of Cytochrome P450 2D6 (P10635 whole entry): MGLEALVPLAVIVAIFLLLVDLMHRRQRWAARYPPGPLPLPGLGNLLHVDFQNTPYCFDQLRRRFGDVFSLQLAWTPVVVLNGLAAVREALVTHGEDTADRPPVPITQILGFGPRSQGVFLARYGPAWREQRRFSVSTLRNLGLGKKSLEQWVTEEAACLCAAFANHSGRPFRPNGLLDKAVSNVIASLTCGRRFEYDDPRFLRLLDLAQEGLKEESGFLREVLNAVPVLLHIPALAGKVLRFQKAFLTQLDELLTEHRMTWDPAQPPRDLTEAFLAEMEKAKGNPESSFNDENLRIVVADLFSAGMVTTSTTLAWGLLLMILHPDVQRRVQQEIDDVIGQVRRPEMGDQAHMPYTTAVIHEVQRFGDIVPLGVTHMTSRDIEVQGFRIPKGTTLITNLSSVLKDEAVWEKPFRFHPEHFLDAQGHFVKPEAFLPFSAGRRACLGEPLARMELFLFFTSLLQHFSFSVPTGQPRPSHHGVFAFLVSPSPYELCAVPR
Sequence of Sphingosine 1-phosphate receptor 2 (O95136 whole entry): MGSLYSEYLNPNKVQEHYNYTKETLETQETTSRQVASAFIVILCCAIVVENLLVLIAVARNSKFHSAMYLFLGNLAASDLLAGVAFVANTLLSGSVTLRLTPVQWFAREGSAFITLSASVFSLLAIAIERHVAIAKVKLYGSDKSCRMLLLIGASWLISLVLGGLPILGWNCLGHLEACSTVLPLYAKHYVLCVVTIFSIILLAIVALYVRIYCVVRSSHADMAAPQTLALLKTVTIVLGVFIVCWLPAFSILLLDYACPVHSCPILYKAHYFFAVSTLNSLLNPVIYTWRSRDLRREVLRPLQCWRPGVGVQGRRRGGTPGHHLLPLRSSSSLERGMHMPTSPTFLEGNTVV
Sequence of NS3 (A3EZJ3 whole entry): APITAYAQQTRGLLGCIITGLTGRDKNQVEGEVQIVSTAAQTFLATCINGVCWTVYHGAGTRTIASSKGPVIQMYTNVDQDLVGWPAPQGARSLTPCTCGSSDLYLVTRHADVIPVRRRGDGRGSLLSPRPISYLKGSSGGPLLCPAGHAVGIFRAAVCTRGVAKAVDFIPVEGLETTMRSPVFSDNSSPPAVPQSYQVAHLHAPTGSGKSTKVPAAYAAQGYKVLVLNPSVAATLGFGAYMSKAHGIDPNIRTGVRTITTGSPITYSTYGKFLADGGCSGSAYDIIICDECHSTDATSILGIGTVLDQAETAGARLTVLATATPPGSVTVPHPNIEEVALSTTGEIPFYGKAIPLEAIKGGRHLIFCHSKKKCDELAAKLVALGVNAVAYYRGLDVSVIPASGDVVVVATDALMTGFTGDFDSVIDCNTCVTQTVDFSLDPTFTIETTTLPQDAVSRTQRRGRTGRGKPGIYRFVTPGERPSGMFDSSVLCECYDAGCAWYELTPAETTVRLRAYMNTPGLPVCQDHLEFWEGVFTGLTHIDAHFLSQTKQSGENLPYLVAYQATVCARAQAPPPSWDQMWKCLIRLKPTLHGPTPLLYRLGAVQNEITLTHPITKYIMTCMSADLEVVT
Sequence of Cytochrome P450 3A4 (P08684 whole entry): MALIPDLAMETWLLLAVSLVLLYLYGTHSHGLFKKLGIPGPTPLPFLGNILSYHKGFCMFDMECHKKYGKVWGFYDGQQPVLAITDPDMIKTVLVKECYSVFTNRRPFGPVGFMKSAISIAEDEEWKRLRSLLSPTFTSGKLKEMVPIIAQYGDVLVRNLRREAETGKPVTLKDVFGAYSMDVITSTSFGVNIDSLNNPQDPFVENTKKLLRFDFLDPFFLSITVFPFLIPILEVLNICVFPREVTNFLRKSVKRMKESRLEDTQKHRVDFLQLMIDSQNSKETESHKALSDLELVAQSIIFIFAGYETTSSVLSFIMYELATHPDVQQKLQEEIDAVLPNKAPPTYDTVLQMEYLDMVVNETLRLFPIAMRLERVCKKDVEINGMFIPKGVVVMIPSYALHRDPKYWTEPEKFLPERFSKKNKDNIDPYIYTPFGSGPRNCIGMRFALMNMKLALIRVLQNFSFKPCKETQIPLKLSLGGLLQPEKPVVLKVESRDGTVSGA
Sequence of Sphingosine 1-phosphate receptor 1 (P21453 whole entry): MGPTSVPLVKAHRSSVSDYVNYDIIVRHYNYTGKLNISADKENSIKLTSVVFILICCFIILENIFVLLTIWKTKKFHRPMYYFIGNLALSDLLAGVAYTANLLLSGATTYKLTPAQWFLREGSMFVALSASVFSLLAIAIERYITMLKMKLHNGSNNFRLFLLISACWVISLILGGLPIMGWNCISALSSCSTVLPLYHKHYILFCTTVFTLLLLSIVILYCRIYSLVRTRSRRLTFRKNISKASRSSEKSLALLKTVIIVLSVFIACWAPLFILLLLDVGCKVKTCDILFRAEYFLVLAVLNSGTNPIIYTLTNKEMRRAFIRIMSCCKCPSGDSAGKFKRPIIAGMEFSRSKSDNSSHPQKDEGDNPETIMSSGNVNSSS

O=C(Nc1nnc(SCc2ccc(Cl)cc2Cl)s1)C1COc2ccccc2O1 (stereo not given)
IC50 [1]: 49 µM (active)

O=C(Cn1ncc(Cl)c(Cl)c1=O)N1CCN(Cc2ccccc2)CC1
IC50 [2]: 3.08 µM (active) | IC50 [3]: 2.16 µM (active) | EC50 [4]: 2.22 µM (active) | EC50 [5]: 2.06 µM (active) | IC50 [6]: 3.5 µM (active) | IC50 [7]: 9.93 µM (active) | AC50 [8]: 10.9 µM (active) | IC50 (Vero [9]): > 25 µM (active) | CC50 (Vero [10]): 11.3 µM (active) | AC50 [11]: 11.1 µM (active) | AC50 [12]: 17.8 µM (active) | AC50 [13]: 31.5 µM (active) | AC50 [14]: 34.1 µM (active) | AC50 [15]: 7.54 µM (active)

COc1ccc(C)cc1-n1nnnc1SCc1nc(N)nc(N(C)C)n1
EC50 [16]: 20.5 µM (active)

CC(NC(=O)Nc1ccc([N+](=O)[O-])cc1)C(c1ccccc1)N1CCOCC1 (stereo not given)
EC50 (Oxytocin receptor): > 29.9 µM (not active) | EC50 (Vasopressin V1a receptor): 4.67 µM (active)

CC12C=C(/C=C/c3ccc(C(F)(F)F)cc3)C(C)(C1)C(c1ccc(C(F)(F)F)cc1)CC2=O (stereo not given)
AC50 (Cytochrome P450 2D6): 6.31 µM (inconclusive) | AC50 (Cytochrome P450 3A4): 3.98 µM (inconclusive)

CCOC(=O)c1cc(C)n(Cc2ccccc2)c1C
EC50 [17]: > 30 µM (not active)

COc1ccc(C2C(C(=O)c3ccc4c(c3)OCCO4)=C(O)C(=O)N2c2nc(C)c(C(C)=O)s2)cc1 (stereo not given)
IC50 (NS3): 5.13 µM (active)

Nc1ccc(-c2cc3ccccc3oc2=O)cc1
EC50 [18]: < 0.1 µM (active) | EC50 [19]: 0.125 µM (active) | EC50 (cells): 0.215 µM (active) | EC50 [20]: < 0.1 µM (active) | EC50 [21]: < 0.1 µM (active) | EC50 [22]: 0.156 µM (active) | IC50 [23]: > 80 µM (inactive)

COc1ccc(-c2nc(-c3ccccc3)c(-c3ccccc3)[nH]2)cc1OC
IC50 (NADPH oxidase 1): > 17 µM (not active)
